Laboratory results as given in ChEMBL document CHEMBL1201862, “PubChem BioAssay data set” (2004).
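Five concentrations, 48 hours, 96-well plates. GI50 marks 50% less growth.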 Active and inactive are the calls of the source. No stated cut-off is given here; in the data, active = GI50 up to about 1.1 µM and inactive = higher.

Experiments:
Experiment in all cases: NCI anticancer screen, dose series, 48 h
A549 = test system: A549
CAKI-1 = test system: CAKI-1
CCRF-CEM = test system: CCRF-CEM
EKVX = test system: EKVX
HCC 2998 = test system: HCC 2998
HCT-116 = test system: HCT-116
K562 = test system: K562
LOX IMVI = test system: LOX IMVI
NCI-H226 = test system: NCI-H226
NCI-H23 = test system: NCI-H23
NCI-H522 = test system: NCI-H522
OVCAR-8 = test system: OVCAR-8
RPMI-8226 = test system: RPMI-8226
SK-MEL-28 = test system: SK-MEL-28
SNB-19 = test system: SNB-19
SNB-75 = test system: SNB-75
SW-620 = test system: SW-620
U-251 = test system: U-251
UACC-62 = test system: UACC-62
M14 = test system: M14

Measured: GI50

CC(=O)Oc1c(OC(C)=O)c(-c2ccc(O)c(O)c2)c(O)c(O)c1-c1ccc(O)cc1
inactive: A549 > 100 µM | CAKI-1 > 100 µM | CCRF-CEM 61 µM | EKVX > 100 µM | HCC 2998 > 100 µM | HCT-116 > 100 µM | K562 50.7 µM | LOX IMVI 29.9 µM | NCI-H226 > 100 µM | NCI-H23 > 100 µM | NCI-H522 17.7 µM | OVCAR-8 46.2 µM | RPMI-8226 > 100 µM | SK-MEL-28 > 100 µM | SNB-19 > 100 µM | SNB-75 97.5 µM | SW-620 42.7 µM | U-251 > 100 µM | UACC-62 27.4 µM

COc1ccc2oc3c(ccc[n+]3C)c(=O)c2c1
inactive: A549 > 100 µM | CAKI-1 > 100 µM | CCRF-CEM > 100 µM | EKVX > 100 µM | HCC 2998 > 100 µM | HCT-116 > 100 µM | K562 > 100 µM | LOX IMVI > 100 µM | M14 > 100 µM | NCI-H226 > 100 µM | NCI-H23 > 100 µM | NCI-H522 > 100 µM | OVCAR-8 > 100 µM | SK-MEL-28 > 100 µM | SNB-19 > 100 µM | SNB-75 > 100 µM | SW-620 > 100 µM | U-251 > 100 µM | UACC-62 > 100 µM

CC(C)CC/N=c1/cc2n(-c3ccc(Cl)cc3)c3ccccc3nc-2cc1Nc1ccc(Cl)cc1
inactive: A549 15.3 µM | CAKI-1 10.4 µM | CCRF-CEM 3.72 µM | EKVX 6.12 µM | HCC 2998 3.86 µM | HCT-116 3.77 µM | K562 2.96 µM | LOX IMVI 2.89 µM | NCI-H226 6.25 µM | NCI-H23 3.43 µM | NCI-H522 2.11 µM | OVCAR-8 7.78 µM | RPMI-8226 2.22 µM | SK-MEL-28 15.6 µM | SNB-19 32.3 µM | SNB-75 9.75 µM | SW-620 6.44 µM | U-251 8.67 µM | UACC-62 5.52 µM

O=c1cnn(C/C=C/CP(=O)(O)O)c(=O)[nH]1
inactive: A549 > 100 µM | CAKI-1 > 100 µM | CCRF-CEM > 10 µM | EKVX > 100 µM | HCC 2998 > 100 µM | K562 > 100 µM | LOX IMVI > 100 µM | M14 > 100 µM | NCI-H226 > 100 µM | NCI-H23 > 100 µM | NCI-H522 > 100 µM | OVCAR-8 > 100 µM | RPMI-8226 > 100 µM | SK-MEL-28 > 100 µM | SNB-19 > 100 µM | SNB-75 > 100 µM | SW-620 > 100 µM | U-251 > 100 µM

O=C(Nc1ccc(I)cc1C(=O)NCCO)c1cccs1
inactive: A549 82.8 µM | CAKI-1 > 100 µM | CCRF-CEM > 100 µM | EKVX > 100 µM | HCC 2998 > 100 µM | HCT-116 > 100 µM | K562 > 100 µM | LOX IMVI > 100 µM | M14 > 100 µM | NCI-H226 > 100 µM | NCI-H23 > 100 µM | NCI-H522 > 100 µM | OVCAR-8 > 100 µM | RPMI-8226 53.5 µM | SK-MEL-28 > 100 µM | SNB-19 > 100 µM | SW-620 > 100 µM | U-251 > 100 µM | UACC-62 > 100 µM
